Data set [1] can be described thus: (§1) Metabolic stability in rat liver microsomes assessed as parent compound remaining after 10 mins. It is filed as ADME, microsome. As to conditions: liver microsomes, read-out: Stability; call rule not given here.
Data set [2] in a line: Metabolic stability in human liver microsomes assessed as parent compound remaining after 10 mins. It is filed as ADME, microsome. As to conditions: read-out: Stability.
For the next data set, the system named is Liver. The description is as §1. To be noted: microsomes, 10 min. It counts as ADME, microsome.
A further data set has as its system Rattus norvegicus. Put plainly: AUC in rat at 5 mg/kg, po. It is filed as ADME, organism-based. To be noted: in vivo, BLD = below limit of detection.
The nature of data set [3]: Volume of distribution at steady state in rat at 2 mg/kg, iv or 5 mg/kg, po. It counts as ADME, organism-based. As to conditions: in vivo, read-out: Vdss.
Data set [4] in a line: Clearance in rat at 2 mg/kg, iv. It counts as ADME, organism-based. To be noted: in vivo.
Data set [5] in a line: Plasma half life in rat at 2 mg/kg, iv. It is filed as ADME, organism-based.

Consider `O=C(NS(=O)(=O)c1ccc(F)cc1)c1ccc(Nc2nc(NC3(c4ccc(Cl)cc4)CC3)nc(OCC(F)(F)F)n2)cc1`, for which the remaining at 10 min in data set [1] worked out at 99%; in data set [2], 100%.
Regarding `O=C(NS(=O)(=O)C1CC1)c1ccc(Nc2nc(NC3(c4ccc(Cl)cc4)CC3)nc(OCC(F)(F)F)n2)cc1`, the remaining at 10 min turned out to be 85% in data set [1] and 100% in data set [2].
Take `CCCCCNc1nc(Nc2ccc([N+](=O)[O-])cc2)nc(OCC(F)(F)F)n1`: the remaining at 10 min in data set [1] was 35%; in data set [2] it was 74%.
For `O=C(NS(=O)(=O)CCNCc1ccccc1)c1ccc(Nc2nc(NC3(c4ccc(Cl)cc4)CC3)nc(OCC(F)(F)F)n2)cc1`, the remaining at 10 min was 100% in data set [1] and 99% in data set [2].
With `O=C(NS(=O)(=O)CCNC(=O)C1CC1)c1ccc(Nc2nc(NC3(c4ccc(Cl)cc4)CC3)nc(OCC(F)(F)F)n2)cc1`, the Stability result in the data set on Liver was “Not Active”. Further, the remaining at 10 min in data set [2] is 90%.
In the case of `CCN(CC)CCS(=O)(=O)NC(=O)c1ccc(Nc2nc(NC3(c4ccc(Cl)cc4)CC3)nc(OCC(F)(F)F)n2)cc1`, the figures for the remaining at 10 min in data set [1] and in data set [2] were 98% and 99%, respectively.
Turning to `CC(C)(C)OC(=O)NCCS(=O)(=O)NC(=O)c1ccc(Nc2nc(NC3(c4ccc(Cl)cc4)CC3)nc(OCC(F)(F)F)n2)cc1`, the remaining at 10 min in data set [1] is 93%; in data set [2], 92%.
For `CN(C)CCS(=O)(=O)NC(=O)c1ccc(Nc2nc(NC3(c4ccc(Cl)cc4)CC3)nc(OCC(F)(F)F)n2)cc1`, in that order: 100% and 89%.
Take `O=C(NS(=O)(=O)c1ccccc1)c1ccc(Nc2nc(NC3(c4ccc(Cl)cc4)CC3)nc(OCC(F)(F)F)n2)cc1`: the remaining at 10 min in data set [1] and in data set [2] was 100% throughout.
Turning to `CNC(=O)NCCS(=O)(=O)NC(=O)c1ccc(Nc2nc(NC3(c4ccc(Cl)cc4)CC3)nc(OCC(F)(F)F)n2)cc1`, the remaining at 10 min in data set [1] was 100%; in data set [2], 97%.
`CS(=O)(=O)NC(=O)c1ccc(Nc2nc(NC3(c4ccc(Cl)cc4)CC3)nc(OCC(F)(F)F)n2)cc1`: the remaining at 10 min in data set [1] was 85%; in data set [2] it was 100%.
The matching figures for `CCS(=O)(=O)NC(=O)c1ccc(Nc2nc(NC3(c4ccc(Cl)cc4)CC3)nc(OCC(F)(F)F)n2)cc1`: 85% and 100%.
Turning to `CC(C)(C)NC(=O)NCCS(=O)(=O)NC(=O)c1ccc(Nc2nc(NC3(c4ccc(Cl)cc4)CC3)nc(OCC(F)(F)F)n2)cc1`, the values for the remaining at 10 min in data set [1] and in data set [2] were 93% and 96%, respectively.
As for `CC(C)NC(=O)NCCS(=O)(=O)NC(=O)c1ccc(Nc2nc(NC3(c4ccc(Cl)cc4)CC3)nc(OCC(F)(F)F)n2)cc1`, the remaining at 10 min in data set [1] is 97%; in data set [2], 100%.
Regarding `CC(C)(C)CNCCS(=O)(=O)NC(=O)c1ccc(Nc2nc(NC3(c4ccc(Cl)cc4)CC3)nc(OCC(F)(F)F)n2)cc1`, the remaining at 10 min in data set [1] worked out at 90%; in data set [2], 89%. The AUC entry in the data set with Rattus norvegicus was “Bld”. For the same compound, in data set [3], the Vd was determined as 0.6 L/kg. In addition, the clearance in data set [4] amounted to 22.5 mL/min/kg. Moreover, the half-life in data set [5] was 2.6 h.
For the compound `COC(=O)NCCS(=O)(=O)NC(=O)c1ccc(Nc2nc(NC3(c4ccc(Cl)cc4)CC3)nc(OCC(F)(F)F)n2)cc1`, the remaining at 10 min is 100% in data set [1] and 90% in data set [2].
The matching figures for `CC(C)OC(=O)NCCS(=O)(=O)NC(=O)c1ccc(Nc2nc(NC3(c4ccc(Cl)cc4)CC3)nc(OCC(F)(F)F)n2)cc1`: 73% and 100%.
`CC(=O)NCCS(=O)(=O)NC(=O)c1ccc(Nc2nc(NC3(c4ccc(Cl)cc4)CC3)nc(OCC(F)(F)F)n2)cc1`: the results for the remaining at 10 min in data set [1] and in data set [2] were 100% and 95%, respectively.
On to `O=C(O)c1ccc(Nc2nc(NC3(c4ccc(Cl)cc4)CC3)nc(OCC(F)(F)F)n2)cc1`, for which the remaining at 10 min in data set [1] came to 99%; in data set [2] it was 89%.
Turning to `O=C(NS(=O)(=O)CCN1CCOCC1)c1ccc(Nc2nc(NC3(c4ccc(Cl)cc4)CC3)nc(OCC(F)(F)F)n2)cc1`, the values for the remaining at 10 min in data set [1] and in data set [2] were 97% and 78%, respectively.
`CC(C)S(=O)(=O)NC(=O)c1ccc(Nc2nc(NC3(c4ccc(Cl)cc4)CC3)nc(OCC(F)(F)F)n2)cc1`: the remaining at 10 min was 96% in data set [1] and 100% in data set [2].
For `CC(C)C(=O)NCCS(=O)(=O)NC(=O)c1ccc(Nc2nc(NC3(c4ccc(Cl)cc4)CC3)nc(OCC(F)(F)F)n2)cc1`, in that order: 84% and 86%.
As to `Cc1ccccc1S(=O)(=O)NC(=O)c1ccc(Nc2nc(NC3(c4ccc(Cl)cc4)CC3)nc(OCC(F)(F)F)n2)cc1`, the remaining at 10 min in data set [1] and in data set [2] was 100% each time.
Turning to `NCCS(=O)(=O)NC(=O)c1ccc(Nc2nc(NC3(c4ccc(Cl)cc4)CC3)nc(OCC(F)(F)F)n2)cc1`, the remaining at 10 min in data set [1] and in data set [2] was 100% throughout.
Turning to `CC(C)NCCS(=O)(=O)NC(=O)c1ccc(Nc2nc(NC3(c4ccc(Cl)cc4)CC3)nc(OCC(F)(F)F)n2)cc1`, the remaining at 10 min in data set [1] turned out to be 100%; in data set [2], 89%.
Regarding `CN(C)S(=O)(=O)NC(=O)c1ccc(Nc2nc(NC3(c4ccc(Cl)cc4)CC3)nc(OCC(F)(F)F)n2)cc1`, the values for the remaining at 10 min in data set [1] and in data set [2] were 76% and 86%, respectively.
On to `O=C(NS(=O)(=O)CCN1CCCC1)c1ccc(Nc2nc(NC3(c4ccc(Cl)cc4)CC3)nc(OCC(F)(F)F)n2)cc1`, for which the remaining at 10 min came out at 98% in data set [1] and 96% in data set [2].

Values taken from ChEMBL document CHEMBL4002616, “Functionalized triazines as potent HCV entry inhibitors” (Bioorg Med Chem Lett, 2017).
